# What was measured:
# [1] = acute treatment; Chen et al., Hypertension 2001; cited from earlier work
# [2] = system: Zucker Diabetic Fatty (ZDF) Rats (ZDF Gmi fa/fa); experiment: Urinary excretion of albumin and creatinine in ZDF rats treated from 10 to 37 weeks of age; type: in vivo, rat; details: ZDF rats, mean
# Description: (§1) The protein and creatinine excretion in the urine of male Zucker Diabetic Fatty (ZDF) Rats (ZDF Gmi fa/fa) and heterozygous control animals (ZDF Gmi −/+) of 10, 17, 27 and 37 weeks age was determined. In further groups, diabetic rats were chronically given either ramipril (1 mg/kg/day, in drinking water) or a compound of formula (II-B) (30 mg/kg/day, in food) over a period from 10 to 37 weeks. The animals were sacrificied after 37 weeks, and their kidneys examined histologically.
# fat ZDF rats = experiment: Histological examination of kidneys of ZDF rats after 6 months treatment; type: in vivo, rat; design: Armanni-Ebstein cells MEAN SEVERITY / Glomerulosclerosis MEAN SEVERITY / Atrophy: renal tubule MEAN SEVERITY / Casts: renal tubule MEAN SEVERITY: scale not given here
# Description: as §1
# In the attached tables a summary of the findings on the kidneys after a treatment period of 6 months is listed.
# ZDF rats = experiment: Urinary albumin/creatinine in ZDF rats, treatment starting at an animal age of 6 months; type: in vivo, rat; details: start at age 6 months, mean
# Goto-Kakizaki (GK) rats = experiment: Albumin and creatinine excretion in Goto-Kakizaki (GK) rats; type: in vivo, rat; details: start at age 6 months, mean
# Description: The albumin and creatinine excretion in Goto-Kakizaki (GK) rats was determined. GK rats are a model for Type II diabetes. One group was left untreated, one was treated with the ACE/NEP inhibitor of formula (II-B) and one group was treated with the ACE inhibitor ramipril. [table]
# Wistar rats = experiment: Albumin and creatinine excretion in Wistar rats (non-diabetic nephropathy); type: in vivo, rat; details: Wistar rats, start at age 6 months, mean
# Description: The albumin and creatinine excretion in Wistar rats was determined. One group was left untreated, one was treated with the ACE/NEP inhibitor of formula (II-B) and one group was treated with the ACE inhibitor ramipril. Wistar rats are non-diabetic and develop proteinuria and structural kidney damage during adult life. Wistar rats are therefore a model for non-diabetic nephropathy. [table]
# [3] = system: Zucker diabetic fatty rats; experiment: Blood glucose analysis in ZDF rats; type: in vivo, rat; details: for blood glucose, mean: ZDF rats
# Description: (§2) Blood glucose and HbA1c was measured in 10- and 17-week-old male Zucker diabetic fatty rats (Genetic Model Inc.), control rats (Genetic Model Inc.) and male ZDF rats treated for seven weeks with 30 mg/kg/d of compound (II-B), 35 mg/kg/d of compound (III-B) and 1 mg/kg/d ramipril. Fifteen animals were analyzed in each group.
# Blood samples for glucose determination were obtained from ZDF rats using standard sampling tubes. Within 30 minutes of collection, samples were separated from the cells by centrifugation. Quantitative determination of blood glucose in serum was performed with an enzymatic in vitro test from Roche Diagnostics GmbH (Gluco-quant, Roche Diagnostics GmbH) using the automated clinical chemistry analyzer Boehringer Mannheim/Hitachi 912.
# [4] = system: Zucker diabetic fatty rats; experiment: HbA1c analysis in ZDF rats; type: in vivo, rat; details: for HbA1c, mean: ZDF rats
# Description: as §2
# To obtain blood samples for HbA1c determination, disposable capillary tubes were used. HbA1c values were obtained from hemolyzed whole blood samples with a turbidimetric inhibition immunoassay (Tina-quant, Roche Diagnostics GmbH) and hemoglobin concentrations were determined in a second channel on an automated clinical chemistry analyzer (Boehringer Mannheim/Hitachi 912). HbA1c concentration in percent were calculated from HbA1c to total hemoglobin.
# [5] = system: isolated aortic rings of rabbits; experiment: Relaxation of aortic rings by acetylcholine in rabbits fed an atherogenic diet; type: in vivo, White New Zealand rabbits; details: varied diet rabbits, mean ± SEM
# Text: It was shown in the atherogenic rabbit model (White New Zealand rabbits were fed with 0.25% cholesterol plus 3% coconut oil) that even a short 6 week period of an atherogenic diet leads to sustained endothelial dysfunction, even though the animals received a normal diet for 3 months thereafter. […] The endothelium-dependent relaxation of isolated aortic rings of rabbits as well as the release of nitric oxide and superoxide from endothelial cells serve as measures of endothelial dysfunction. […] (II-B) [table]
# endothelial cells = experiment: NO and superoxide release from endothelial cells in rabbits fed an atherogenic diet; type: in vivo, White New Zealand rabbits; details: varied diet rabbits; mean ± SEM
# Text: It was shown in the atherogenic rabbit model (White New Zealand rabbits were fed with 0.25% cholesterol plus 3% coconut oil) that even a short 6 week period of an atherogenic diet leads to sustained endothelial dysfunction, even though the animals received a normal diet for 3 months thereafter.
# The endothelium-dependent relaxation of isolated aortic rings of rabbits as well as the release of nitric oxide and superoxide from endothelial cells serve as measures of endothelial dysfunction.
# • Groups: • Standard: 18 weeks normal diet • Atherogenic: 18 weeks atherogenic diet (3% Coconut oil+0.25% Cholesterol) • Varied diet (Var.): 6 weeks atherogenic diet+12 weeks normal diet • Varied Diet+ramipril: 6 weeks atherogenic diet+12 weeks normal diet+ramipril • Varied diet+compound (II-B): 6 weeks atherogenic diet+12 weeks normal diet+cpd. (II-B)
# NO and O2^− are markers for endothelial function: increased relaxation and increased NO levels are beneficial, while increased O2^− formation inhibits the beneficial effects of NO.
# [6] = kidneys, male fat ZDF rats, terminal sacrifice
# [7] = kidneys, male fat ZDF rats, terminal sacrifice, examined: D1 9, D4 8
# [8] = age 10 weeks (start of treatment)
# [9] = age 17 weeks (treated for seven weeks)
smiles,measurement,setting,value
O=C(N[C@H]1CCS[C@H]2CCC[C@@H](C(=O)O)N2C1=O)[C@@H](S)Cc1ccccc1 [omapatrilat],Natriuretic response compared with ACE inhibitor fosinoprilat,[1],greater natriuretic response
"CCOC(=O)[C@H](CCc1ccccc1)N[C@@H](C)C(=O)N1[C@H](C(=O)O)C[C@@H]2CCC[C@@H]21 [ramipril, reference compound]",Urine excretion Albumin,[2]; week 0 of treatment,0.24 mg/kg/h
same,Urine excretion Albumin/Creatinine,[2]; week 0 of treatment,37.31 mg/mmol
same,Urine excretion Albumin,[2]; week 7 of treatment,1.36 mg/kg/h
same,Urine excretion Albumin/Creatinine,[2]; week 7 of treatment,207.35 mg/mmol
same,Urine excretion Albumin,[2]; week 17 of treatment,6.26 mg/kg/h
same,Urine excretion Albumin/Creatinine,[2]; week 17 of treatment,694.20 mg/mmol
same,Urine excretion Albumin,[2]; week 27 of treatment,10.11 mg/kg/h
same,Urine excretion Albumin/Creatinine,[2]; week 27 of treatment,1077.88 mg/mmol
same,Incidence of glomerulosclerosis or associated degenerative lesions compared to fat ZDF controls,fat ZDF rats; in words,no differences
same,Armanni-Ebstein cells GRADE 1: number of animals,fat ZDF rats; [6],1
same,Armanni-Ebstein cells GRADE 2: number of animals,fat ZDF rats; [6],6
same,Armanni-Ebstein cells MEAN SEVERITY,fat ZDF rats; [6],1.9
same,Atrophy: renal tubule GRADE 1: number of animals,fat ZDF rats; [6],4
same,Atrophy: renal tubule GRADE 2: number of animals,fat ZDF rats; [6],4
same,Atrophy: renal tubule GRADE 3: number of animals,fat ZDF rats; [6],1
same,Atrophy: renal tubule MEAN SEVERITY,fat ZDF rats; [6],1.7
same,Casts: renal tubule GRADE 1: number of animals,fat ZDF rats; [6],1
same,Casts: renal tubule GRADE 2: number of animals,fat ZDF rats; [6],7
same,Casts: renal tubule MEAN SEVERITY,fat ZDF rats; [6],1.9
same,Dilatation: pelvis GRADE 2: number of animals,fat ZDF rats; [6],1
same,Dilatation: pelvis GRADE 3: number of animals,fat ZDF rats; [6],2
same,Dilatation: pelvis GRADE 4: number of animals,fat ZDF rats; [6],2
same,Dilatation: pelvis MEAN SEVERITY,fat ZDF rats; [6],3.2
same,Glomerulosclerosis GRADE 2: number of animals,fat ZDF rats; [6],4
same,Glomerulosclerosis GRADE 3: number of animals,fat ZDF rats; [6],2
same,Glomerulosclerosis MEAN SEVERITY,fat ZDF rats; [6],2.3
same,Armanni-Ebstein cells: number of animals with finding (total affected),fat ZDF rats; [7],7
same,Atrophy: renal tubule: number of animals with finding (total affected),fat ZDF rats; [7],9
same,Casts: renal tubule: number of animals with finding (total affected),fat ZDF rats; [7],8
same,Dilatation: pelvis: number of animals with finding (total affected),fat ZDF rats; [7],5
same,Glomerulosclerosis: number of animals with finding (total affected),fat ZDF rats; [7],6
same,Albumin/Creatinine,ZDF rats; 6 weeks treatment,1249.59 mg/mmol
same,Albumin/Creatinine,ZDF rats; 12 weeks treatment,841.69 mg/mmol
same,Albumin/Creatinine,ZDF rats; Basal,1330.99 mg/mmol
same,Albumin/Creatinine,Goto-Kakizaki (GK) rats; 6 weeks treatment,161.71 mg/mmol
same,Albumin/Creatinine,Goto-Kakizaki (GK) rats; 12 weeks treatment,244.89 mg/mmol
same,Albumin/Creatinine,Goto-Kakizaki (GK) rats; Basal,103.95 mg/mmol
same,Albumin/Creatinine,Wistar rats; 6 weeks treatment,184.27 mg/mmol
same,Albumin/Creatinine,Wistar rats; 12 weeks treatment,188.40 mg/mmol
same,Albumin/Creatinine,Wistar rats; Basal,130.45 mg/mmol
same,Blood glucose concentration compared to the untreated ZDF rats,"[3]; 17-week-old ZDF rats, in words",No significant difference
same,"blood glucose, mean",[3]; [8],11.74 mM
same,"blood glucose, mean",[3]; [9],27.33 mM
same,HbA1c values compared to the untreated ZDF rats,"[4]; 17-week-old ZDF rats, in words",No significant difference
same,"HbA1c, mean",[4]; [8],5.66%
same,"HbA1c, mean",[4]; [9],9.48%
same,Relaxation of aortic rings by acetylcholine,[5]; ACh 10^−5 mol/L after phenylephrine 10^−7 mol/L,83.73 ± 4.03%
same,Relaxation of aortic rings by acetylcholine,[5]; ACh 10^−6 mol/L after phenylephrine 10^−7 mol/L,77.34 ± 3.7%
same,Relaxation of aortic rings by acetylcholine,[5]; ACh 10^−7 mol/L after phenylephrine 10^−7 mol/L,51.86 ± 4.43%
same,Relaxation of aortic rings by acetylcholine,[5]; ACh 10^−8 mol/L after phenylephrine 10^−7 mol/L,13.08 ± 2.22%
same,NO,endothelial cells,368.31 ± 42.25 nM
same,O2^− (superoxide),endothelial cells,48.09 ± 7.91 nM

# Source: patent US6930103B2, “Use of vasopeptidase inhibitors in the treatment of metabolic diseases, nephropathy and advanced glycation end-product associated diseases” (Aventis Pharma Deutschland GmbH, priority 2002, dated 2005)
